{"source": "patent US7438931B2", "about": "“Methods and compositions for the treatment of angiogenic diseases” (The Regents of The University of Michigan, priority 1998, dated 2008)", "key": {"[1]": {"test_system": "MML cells (prostate cancer) and breast cancer cells", "test": "Cytotoxicity assay of MML cells and breast cancer cells", "assay_type": "cell-based", "description": "Normal and neoplastic cells in culture derive their nutrients from transport and utilization of molecules from the media to the interior of the cell. This process is not dependent on blood vessel growth, and therefore TM should have no effect on cell growth rates and cell viability over a wide range of concentration, until a level of TM which is toxic to most cells is reached. One mechanism of toxicity is the depletion of free copper levels below those required for basic cell function. For concentrations of TM beyond this toxic level, both normal and neoplastic cells will be unable to survive, due to cellular toxicity of TM.\nThis was confirmed in a cytotoxicity assay of MML cells (prostate cancer) and breast cancer cells. […] The fraction of viable cells decreased precipitously from 100% to 15% when the concentration of TM increased from 1 μg/ml to 10 μg/ml. TM is therefore not contemplated for use a direct cytotoxic agent, as it is clear that, at the very high doses required for a cytotoxic effect, both tumor and normal cell death would occur. The serum TM concentrations needed to achieve an effective decoppering level are 100-500-fold lower than the threshold lethal level for cells."}, "[2]": {"test_system": "mouse sarcoma, MCA205, and a mouse melanoma, B16B16", "test": "Mouse tumor model, injected tumor cells in C57B1/6J mice", "assay_type": "in vivo", "protocol": "Under these guidelines, anti-angiogenesis therapeutic studies were conducted using TM in a mouse tumor model. This study involved subcutaneous or intramuscular injection of tumor cells into young adult C57B1/6J mice. Two tumors were used, a mouse sarcoma, MCA205, and a mouse melanoma, B16B16. The MCA 205 tumor cell suspension was injected subcutaneously into C57B16 mice. After the tumors were palpable, copper deficiency was induced by use of TM in half the animals, using Cp levels to monitor copper status. The other half were sham treated. Tumor growth was compared between the untreated control group and mice treated with sufficient TM to reduce Cp to about 10% of normal controls."}, "Serum ceruloplasmin (Cp)": {"test_system": "Serum ceruloplasmin (Cp)", "test": "Phase I trial: serum ceruloplasmin as surrogate marker of total-body copper", "assay_type": "in vivo, human", "protocol": "Three dose regimens were evaluated. All dose levels consisted of TM 20 mg given 3 times daily with meals plus an escalating (levels I, II, and III) in-between meal dosing, given 3 times daily, for a total of 6 doses per day. Loading dose levels I, II, and III provided TM at 10 mg, 15 mg, and 20 mg, 3 times daily between meals, respectively, in addition to the 3 doses of 20 mg each, given with meals, at all dose levels.\nBaseline Cp was taken as the nearest Cp measurement to day 1 of treatment, including day 1, since the blood was drawn pre-TM, for all patients. The target Cp reduction was defined as 20% of baseline Cp. Due to Cp assay variability of approximately 2%, a change of Cp to 22% of baseline was considered as achieving the desired reduction of copper. In addition, if the absolute Cp was less than 5 mg/dl, then the patient was considered as having reached the target Cp. No patient reached the target due to an absolute Cp of less that 5 mg/dl, without also being at least 78% reduced from baseline. After reaching the target copper deficient state, TM doses were individually tailored to maintain Cp within a target window of 70-90% reduction from baseline.\nA method was required to monitor copper status easily and reliably, so that TM dose could be adjusted appropriately during this trial. With TM administration, serum copper is not a useful measure of total-body copper, because the TM-copper-albumin complex is not rapidly cleared, and the total serum copper (including the fraction bound to the TM-protein complex) actually increases during TM therapy (Brewer et al., 1991a; 1994b; 1996). The serum ceruloplasmin level obtained weekly was used as a surrogate measure of total-body copper status. The serum Cp level is controlled by Cp synthesis by the liver, which, in turn, is determined by copper availability to the liver (Linder et al., 1979). […] The serum Cp level is in the range of 20-35 mg/dl and 30-65 mg/dl for normal controls and cancer patients, respectively. The objective as this trial was to reduce Cp to or below 20% of baseline, and to maintain this level, within a window spanned by (20±10) % of the baseline Cp, with typical Cp values in the range of 7-12 mg/dl. Since there appears to be no untoward clinical effects from this degree of copper reduction, this level of copper deficiency has been termed “chemical copper deficiency”. The first indication of true clinical copper deficiency is a reduction in blood cell counts, primarily anemia, as copper is required for heme synthesis as well as cellular proliferation (Brewer et al., 1996). Thus, the copper deficiency objective of this trial was to reduce the Cp to 20% of baseline or below, without decreasing the patient's hematocrit or WBC to below 80% of the baseline value at entry.\nComplete blood counts, liver and renal function tests, urinalyses, and Cp level (by the oxidase method) were performed weekly for 16 weeks, then bi-weekly. Physical examinations and evaluations of toxicity were carried out every 2 weeks for 8 weeks, then every 4 weeks for the duration of therapy. Toxicity was evaluated using the National Cancer Institute Common Toxicity Criteria (Table 3). As TM is not a cytotoxic drug at the doses employed, and it has already been given to humans without any other toxicities than the ones described in detail above, the majority of the toxicities listed in Table 3, should they arise, are not expected to be due to TM. Nevertheless, therapy will be discontinued and the patient removed from the study if grade 3 or higher toxicities of any type are observed, whatever the probable etiology. For grade 2 toxicities, an attempt will be made to establish their etiology."}, "copper toxicity": {"test_system": "copper toxicity", "conditions": "late stages of liver disease; cited from earlier work"}, "[3]": {"conditions": "for eight weeks; cited from earlier work"}, "[4]": {"conditions": "approximately 6 mg of TM per kilogram of diet; cited from earlier work"}, "[5]": {"conditions": "in vivo, iv; cited from earlier work"}, "[6]": {"conditions": "initial TM doses 90 to 120 mg per day, six times per day regimen"}}, "note": "“And” between values parts separate entries of the source, which are not always exact repeats. Equal values may be shown once."}
{"substance": "tetrathiomolybdate [TM]", "values": [{"measurement": "serum TM concentrations for effective decoppering relative to threshold lethal level for cells", "setting": "[1]", "value": "100-500 fold lower"}, {"measurement": "tumor growth", "setting": "[2]; TM sufficient to reduce Cp to about 10% of normal, 16 days of observation", "value": "Tumor growth was slowed by the treatment, although not halted"}, {"measurement": "tumor weight normalized to total weight of the animal", "setting": "[2]; TM-treated vs control mice", "value": "weighed significantly less than the tumors in control mice"}, {"measurement": "No. of Patients: Achieved Target Cp", "setting": "Serum ceruloplasmin (Cp); 18 patients", "value": 14}, {"measurement": "No. of Patients: Did Not Achieve Target Cp", "setting": "Serum ceruloplasmin (Cp); 18 patients", "value": 4}, {"measurement": "time to Cp 50% of baseline, mean", "setting": "Serum ceruloplasmin (Cp); 90, 105 and 120 mg/day", "value": 30, "unit": "days"}, {"measurement": "time to Cp 50% of baseline, median", "setting": "Serum ceruloplasmin (Cp); 90, 105 and 120 mg/day", "value": 28, "unit": "days"}, {"measurement": "time for further reduction to Cp levels of 5-10 mg/dl", "setting": "Serum ceruloplasmin (Cp); after reduction to 50% of baseline", "value": "20 to 30", "unit": "days"}, {"measurement": "effect of increasing in-between meals dose on Cp decrease", "setting": "Serum ceruloplasmin (Cp); from 10 mg 3× daily to 15 mg or 20 mg 3× daily", "value": "no significant effect on the rate of decrease of the Cp level"}, {"measurement": "No. of Patients: Target Cp <90 days", "setting": "Serum ceruloplasmin (Cp); in vivo", "value": "8/14"}, {"measurement": "No. of Patients: Target Cp >90 days", "setting": "Serum ceruloplasmin (Cp); in vivo", "value": "6/14"}, {"measurement": "patients maintained at the target Cp for more than 90 days", "setting": "Serum ceruloplasmin (Cp); in vivo", "value": "39 % of those treated"}, {"measurement": "time to rapid rise in Cp when TM was discontinued", "setting": "Serum ceruloplasmin (Cp); in vivo", "value": "≤ 48", "unit": "h"}, {"measurement": "patients with serum Cp lowered to 20% of baseline", "setting": "Serum ceruloplasmin (Cp); [6]", "value": "14 out of 18"}, {"measurement": "patients with serum Cp lowered to 50% of baseline", "setting": "Serum ceruloplasmin (Cp); [6]", "value": "17 out of 18"}, {"measurement": "reaching the target Cp", "setting": "Serum ceruloplasmin (Cp); level III dose 120 mg/day", "value": "effective in reaching the target Cp, without added toxicity"}, {"measurement": "development of clinically overt tumors", "setting": "mammary tumors; 0.5-1.0 mg TM by gavage daily from 100 days of age, median follow-up of 260 days", "value": "none of the TM-treated mice developed clinically overt tumors"}, {"measurement": "maximum tolerated dose (MTD)", "setting": "mammary tumors; adult mice (average weight 32 grams), prolonged treatment", "value": 1.0, "unit": "mg/day"}, {"measurement": "outcome at higher doses", "setting": "mammary tumors; animals who received 1.25-1.5 mg", "value": "died after 1-3 weeks of therapy"}, {"measurement": "shrinkage of well established mammary tumors", "setting": "mammary tumors; control animals treated after tumors >1.5 cm, 2 of 3 cases", "value": "25% and 50%"}, {"measurement": "anemia", "setting": "mammary tumors; copper (Cp) decreased to below 40% of baseline", "value": "no anemia observed"}, {"measurement": "toxicity", "setting": "mammary tumors; copper levels decreased to 10% of baseline", "value": "no clinically overt toxicity"}, {"measurement": "time to clinically overt mammary tumors after release from treatment", "setting": "mammary tumors; cross-over group, previously disease-free", "value": "≤ 18", "unit": "days"}, {"measurement": "vascularization of micro-tumors in mammary glands", "setting": "mammary tumors; microscopic analyses of TM-treated mice", "value": "none of the micro-tumors of the treated mice were vascularized"}, {"measurement": "ceruloplasmin (Cp)", "setting": "mammary tumors; treatment group", "value": "below 40 % of baseline"}, {"measurement": "efficacy against copper toxicity", "setting": "copper toxicity", "value": "very effective in treating these animals in the late stages of their liver disease"}, {"measurement": "potency retained in gelatin capsules", "setting": "[3]", "value": "at least 90%"}, {"measurement": "effects on copper", "setting": "[4]", "value": "reduction of plasma ceruloplasmin and a reduction in liver and kidney copper"}, {"measurement": "excreted in feces", "setting": "[5]", "value": 5, "unit": "%"}, {"measurement": "excreted in urine", "setting": "[5]", "value": "over 90%"}, {"measurement": "t1/2 of slow plasma disappearance", "setting": "[5]", "value": "about 40 h"}]}
